According to patent publication US20060069132A1, “Azolecarboxamide herbicides” (priority 2004, published 2006):

How the values were obtained:
[1] = test system: large crabgrass; assay: Test A pre-/postemergence herbicide test; type: in vivo, Digitaria sanguinalis
Procedure, shortened: (§1)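 Sandy loam soil given preemergence directed spray; plants at 2 to 10 cm, one- to two-leaf stage, sprayed to runoff postemergence, compounds in non-phytotoxic solvent with surfactant. Injury rated visually versus untreated controls after about ten greenhouse days, 0 (no effect) to 100 (complete control); dash means not tested.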

[2] = test system: barnyardgrass; assay: Test A pre-/postemergence herbicide test; type: in vivo, Echinochloa crus-galli
Procedure, shortened: as §1

[3] = test system: barnyardgrass; assay: Test C flooded paddy test; type: in vivo, Echinochloa crus-galli; conditions: for Plant response rating, Barnyardgrass: visual rating after 12 to 14 days
Procedure, shortened: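 Postemergence sprays were applied to plants 2 to 18 cm tall (1- to 4-leaf stage); in the flooded paddy test, barnyardgrass was grown to the 2-leaf stage. After 12 to 14 days in a greenhouse, injury was visually rated against untreated controls on a 0–100 scale (100 = complete control).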

[4] = test system: redroot pigweed; assay: Test A pre-/postemergence herbicide test; type: in vivo, Amaranthus retroflexus
Procedure, shortened: as §1

[5] = test system: giant foxtail; assay: Test A pre-/postemergence herbicide test; type: in vivo, Setaria faberi
Procedure, shortened: as §1

[6] = Postemergence, 500 g ai/ha, 0 to 100 scale, 0 no effect, 100 complete control
[7] = Postemergence, 2000 g ai/ha, 0 to 100 scale, 0 no effect, 100 complete control
[8] = Preemergence, 500 g ai/ha, visual rating, 0 to 100 scale (0 no effect, 100 complete control)
[9] = Preemergence, 2000 g ai/ha, 0 to 100 scale, 0 no effect, 100 complete control
[10] = 62 g ai/ha, scale 0 to 100 (0 no effect, 100 complete control)
[11] = 125 g ai/ha, scale of 0 to 100, 0 is no effect, 100 is complete control
[12] = 500 g ai/ha, scale 0 to 100 (0 no effect, 100 complete control)
[13] = Postemergence, 125 g ai/ha, 0 to 100 scale, 0 no effect, 100 complete control
[14] = preemergence, 125 g ai/ha, visual injury, 0 to 100 scale (0 no effect, 100 complete control)
[15] = 250 g ai/ha, scale of 0 to 100, 0 is no effect, 100 is complete control
[16] = Preemergence, 2000 g ai/ha, visual rating, 0 to 100 scale (0 no effect, 100 complete control)
[17] = preemergence, 500 g ai/ha, visual injury, 0 to 100 scale (0 no effect, 100 complete control)
[18] = 125 g ai/ha, scale 0 to 100 (0 no effect, 100 complete control)

SMILES | Plant response rating, Crabgrass, Large [1, 7] | Crabgrass, Large plant response rating [1, 8] | Plant response rating, Barnyardgrass [2, 7] | Barnyardgrass plant response rating [2, 8] | Barnyardgrass plant response rating [3, 10] | Barnyardgrass plant response rating [3, 11] | Plant response rating, Barnyardgrass [3, 12] | Plant response rating, Pigweed [4, 7] | Plant response rating, Foxtail, Giant [5, 7] | Foxtail, Giant plant response rating [5, 8] | Barnyardgrass plant response rating [3, 15] | Crabgrass, Large plant response rating [1, 6] | Crabgrass, Large plant response rating [1, 16] | Barnyardgrass plant response rating [2, 6] | Barnyardgrass plant response rating [2, 16] | Pigweed plant response rating [4, 6] | Pigweed plant response rating [4, 16] | Pigweed plant response rating [4, 17] | Foxtail, Giant plant response rating [5, 6] | Foxtail, Giant plant response rating [5, 16] | further results
CCn1nc(C(C)(C)C)cc1C(=O)Nc1cccc(C(=O)NCCF)c1 [Compound 45] | 90 | 55 | 100 | 80 | 25 | 30 | 80 | 100 | 95 | 75 |  |  |  |  |  |  |  |  |  |  | Plant response rating, Crabgrass, Large [1, 6]: 80; Crabgrass, Large plant response rating [1, 9]: 75; Plant response rating, Barnyardgrass [2, 6]: 100; Barnyardgrass plant response rating [2, 9]: 95; Plant response rating, Barnyardgrass ([3]; 250 g ai/ha, scale 0 to 100 (0 no effect, 100 complete control)): 60; Plant response rating, Pigweed [4, 6]: 100; Pigweed plant response rating [4, 8]: 95; Pigweed plant response rating [4, 9]: 100; Plant response rating, Foxtail, Giant [5, 6]: 90; Foxtail, Giant plant response rating [5, 9]: 100
CCn1nc(C(C)(C)C)cc1C(=O)Nc1cccc(C(=O)NC(C)C)c1 [Compound 51] |  | 80 |  | 85 | 0 | 0 | 75 |  |  | 100 | 20 |  |  |  |  |  |  |  |  |  | Crabgrass, Large plant response rating [1, 13]: 30; Plant response rating, Crabgrass, Large [1, 6]: 30; Crabgrass, Large plant response rating [1, 14]: 80; Barnyardgrass plant response rating [2, 13]: 50; Plant response rating, Barnyardgrass [2, 6]: 75; Barnyardgrass plant response rating [2, 14]: 60; Pigweed plant response rating [4, 13]: 50; Plant response rating, Pigweed [4, 6]: 85; Pigweed plant response rating [4, 8]: 100; Pigweed plant response rating [4, 14]: 100; Foxtail, Giant plant response rating [5, 13]: 20; Plant response rating, Foxtail, Giant [5, 6]: 40; Foxtail, Giant plant response rating [5, 14]: 70
CCn1nc(C(C)(C)C)cc1C(=O)Nc1cccc(C(C)=O)c1 [Compound 122] | 65 | 70 | 85 | 90 | 20 | 50 | 80 | 100 | 80 | 65 | 60 | 35 | 95 | 75 | 95 | 60 | 90 | 85 | 80 | 85 | 
CCOc1cccc(NC(=O)c2cc(C(C)(C)C)nn2CC)c1 [Compound 136] | 70 | 85 | 60 | 65 | 20 | 25 | 80 | 85 | 50 | 60 | 40 | 35 | 90 | 55 | 85 | 65 | 80 | 70 | 25 | 70 | 
CCn1nc(C(C)(C)C)cc1C(=O)Nc1cccc(OCCCF)c1 [Compound 138] | 30 | 70 | 30 | 30 | 0 | 0 | 30 | 100 | 35 | 30 | 15 | 20 | 90 | 15 | 80 | 60 | 95 | 80 | 20 | 90 | 
CCn1nc(C(C)(C)C)cc1C(=O)Nc1cc(C(=O)NCC2CC2)ccn1 [Compound 155] |  |  |  |  | 0 | 25 | 65 |  |  |  | 50 |  |  |  |  |  |  |  |  |  | 
CCc1nc(C(C)(C)C)sc1C(=O)Nc1cccc(C(=O)NCCF)c1 [Compound 209] | 40 |  | 70 |  | 0 |  | 80 | 50 | 25 |  | 70 | 20 | 95 | 30 | 80 | 40 | 100 | 75 | 15 | 90 | Crabgrass, Large plant response rating [1, 17]: 75; Barnyardgrass plant response rating [2, 17]: 60; Barnyardgrass plant response rating [3, 18]: 55; Foxtail, Giant plant response rating [5, 17]: 50
CCc1nc(C(C)(C)C)sc1C(=O)Nc1cccc(C(=O)NC(C)(C)C)n1 [Compound 216] | 20 |  | 15 |  | 0 |  | 30 | 55 | 20 |  | 0 | 20 | 55 | 0 | 35 | 30 | 70 | 0 | 20 | 70 | Crabgrass, Large plant response rating [1, 17]: 15; Barnyardgrass plant response rating [2, 17]: 15; Barnyardgrass plant response rating [3, 18]: 0; Foxtail, Giant plant response rating [5, 17]: 25
CCNC(=O)c1ccc(F)c(NC(=O)c2cc(C(C)(C)C)nn2CC)n1 [Compound 278] | 5 |  | 60 |  | 0 |  | 25 | 70 | 15 |  | 0 | 10 | 60 | 30 | 80 | 60 | 95 | 85 | 5 | 85 | Crabgrass, Large plant response rating [1, 17]: 25; Barnyardgrass plant response rating [2, 17]: 50; Barnyardgrass plant response rating [3, 18]: 0; Foxtail, Giant plant response rating [5, 17]: 60
CCn1nc(C(C)(C)C)cc1C(=O)Nc1nc(C(=O)N2CC=CC2)ccc1F [Compound 281] | 10 |  | 65 |  | 0 |  | 65 | 70 | 25 |  | 30 | 5 | 65 | 30 | 75 | 70 | 95 | 90 | 0 | 75 | Crabgrass, Large plant response rating [1, 17]: 20; Barnyardgrass plant response rating [2, 17]: 60; Barnyardgrass plant response rating [3, 18]: 20; Foxtail, Giant plant response rating [5, 17]: 60
CCn1nc(C(C)(C)C)cc1C(=O)Nc1cccc(OS(=O)(=O)CC)c1 [Compound 408] |  |  |  |  | 20 |  | 70 |  |  |  | 60 |  |  |  |  |  |  |  |  |  | Barnyardgrass plant response rating [3, 18]: 45
